{
  "source": "paper PMC11040648",
  "about": "“Highly tunable bimane-based fluorescent probes: design, synthesis, and application as a selective amyloid binding dye” (Chemical Science, 2024)",
  "target": "T1, tau (fibrils) (Homo sapiens, UniProt P10636)",
  "T1 construct": "gene MAPT; tau amyloid fibrils",
  "T1 sequence (P10636 1-441 isoform P10636-8)": "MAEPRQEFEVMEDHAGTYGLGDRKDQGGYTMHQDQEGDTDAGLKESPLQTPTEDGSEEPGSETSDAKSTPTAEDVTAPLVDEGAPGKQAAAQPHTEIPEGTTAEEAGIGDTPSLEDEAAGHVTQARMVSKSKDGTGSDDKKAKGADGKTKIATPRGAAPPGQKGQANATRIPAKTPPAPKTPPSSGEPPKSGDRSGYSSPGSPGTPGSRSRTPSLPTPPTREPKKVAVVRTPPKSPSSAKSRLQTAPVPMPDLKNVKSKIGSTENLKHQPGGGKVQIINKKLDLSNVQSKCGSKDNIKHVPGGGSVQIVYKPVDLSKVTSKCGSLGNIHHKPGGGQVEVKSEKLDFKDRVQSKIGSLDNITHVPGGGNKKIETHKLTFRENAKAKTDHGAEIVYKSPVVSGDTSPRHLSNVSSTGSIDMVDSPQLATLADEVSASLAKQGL",
  "test": "fluorescence turn-on with […] fibrils ([…] lower than αS), emission maximum […] nm",
  "assay_type": "binding",
  "data": [
    {"compound": "Cc1c(C)n2c(/C=C/c3ccc(N(C)C)cc3)c(C)c(=O)n2c1=O", "note": "[5k]", "values": [
      {"measurement": "fluorescence turn-on with 10 μM fibrils (2.8-fold lower than αS), emission maxim", "result": "although 5k binds to both αS and tau, it has a greater fluorescence activation"}
    ]}
  ]
}
